Laboratory results from publication PMC10578352, “Identification of a Protein Arginine Methyltransferase 7 (PRMT7)/Protein Arginine Methyltransferase 9 (PRMT9) Inhibitor” (Journal of Medicinal Chemistry, 2023).
“Also recorded” adds a separate entry of the source.

Experiments:
DOT1L/KMT4 = target: T1, DOT1L/KMT4 (Homo sapiens, UniProt Q8TEK3); experiment: HotSpot KMT activity assay, DOT1L; type: biochemical
T1 construct: the human recombinant DOT1L (residues 1–416); N-terminal GST-tag; GST (N); purchased Reaction Biology Corporation
T1 sequence (Q8TEK3 1-416): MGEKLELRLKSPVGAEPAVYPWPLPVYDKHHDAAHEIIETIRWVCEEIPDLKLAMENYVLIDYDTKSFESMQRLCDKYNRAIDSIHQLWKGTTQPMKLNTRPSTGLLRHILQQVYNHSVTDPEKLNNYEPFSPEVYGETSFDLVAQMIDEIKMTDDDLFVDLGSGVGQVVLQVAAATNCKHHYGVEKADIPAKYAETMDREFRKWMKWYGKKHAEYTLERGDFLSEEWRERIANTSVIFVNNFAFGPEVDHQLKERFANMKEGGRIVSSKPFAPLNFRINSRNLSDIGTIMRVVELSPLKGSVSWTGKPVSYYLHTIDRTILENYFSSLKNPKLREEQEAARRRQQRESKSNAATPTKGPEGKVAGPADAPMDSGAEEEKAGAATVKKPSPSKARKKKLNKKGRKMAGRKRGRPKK
Method: Then, ^3H-SAM (final concentration 1 μM) was delivered into the reaction mixture to initiate the reaction. After incubation for 60 min at 30 °C, the reaction mixture was delivered to filter paper for detection (as assessed by scintillation). […] No inhibitor control (DMSO) was considered as showing 100% enzyme activity. Data were analyzed using Excel and GraphPad Prism 6.0 software (GraphPad Software Inc., San Diego, CA). Values obtained for each compound are mean ± SD determined for two separate experiments.

[1] = system: SET-domain-containing enzymes; experiment: Selectivity against the panel of SET-domain-containing KMTs; type: biochemical, human; conditions: highest tested concentration 100 μM
Method: . […] After incubation for 60 min at 30 °C, the reaction mixture was delivered to filter paper for detection (as assessed by scintillation). […] Data were analyzed using Excel and GraphPad Prism 6.0 software (GraphPad Software Inc., San Diego, CA). Values obtained for each compound are mean ± SD determined for two separate experiments.

Q: For `COC(=O)c1cc(O)c2cc(NC(=O)NCCCNC(=N)NC[C@H]3O[C@@H](n4cnc5c(N)ncnc54)[C@H](O)[C@@H]3O)cc(C(F)(F)F)c2c1` [1j, Methyl 6-(3-(3-(3-(((2R,3S,4R,5R)-5-(6-Amino-9H-purin-9-yl)-3,4-dihydroxytetrahydrofuran-2-yl)methyl)guanidino)propyl)ureido)-4-hydroxy-8-(trifluoromethyl)-2-naphthoate], which “inhibition of DOT1L/KMT4 (in words)” value (DOT1L/KMT4; 10 μM) is on record?
A: significantly inhibited

Q: What about the remaining activity at 10 µM (DOT1L/KMT4; 10 μM, read-out: % DOT1L residual activity) of the same compound?
A: 11.2 ± 0.88%

Q: And the remaining activity at 100 µM (DOT1L/KMT4; 100 μM, read-out: % DOT1L residual activity)?
A: 1.35 ± 0.17%

Q: And the “inhibition of SET-domain-containing enzymes (in words)” value [1]?
A: none of the SET-domain-containing enzymes was inhibited; also recorded: not inhibited
